Tested on: U2OS cells
Assay: Multicolor competition assay (MCA) of DNA damage sensitivity
Format: cell-based
Settings: 7 days of culture, read-out: concentration resulting in about 50% survival of non-transfected cells
Description: U2OS cells were infected with MSCVgfp or MSCVdsRed, which were packaged in 293T by co-transfection with VSVG vector using TransIT-293 (Minis). Without selection, the cells were sorted using the Aria Sorter (BD) for intermediate expression. The gfp cells grew slightly faster than the rfp cells and this was taken into account when calculating the changes in survival due to treatment with DNA damaging agents. siRNA transfections were performed as described above with gfp cells being transfected with a control siRNA (luciferase) and rfp cells with an siRNA of interest. On the third day after transfections, gfp and rfp cells were counted and mixed in 1 to 1 ratio and were left untreated or were treated with IR or MMC. The concentration of Mitomycin C (Sigma) was chosen to result in about 50% survival of non-transfected cells, which was about 70 nM MMC for U2OS cells. After 7 days of culture, all cells were collected and analyzed using Cytomix FC500 Analyzer (Beckman Coulter). […]
Two populations of U20S (osteosarcoma) cells differing only in their color were created by expression of red fluorescent protein (RFP) or green fluorescent protein (GFP). siRNA depletion of the protein of interest was carried out in the […] were transfected with control siRNA. […] After 7 days, cells were harvested and a ratio of red to green cells was determined using flow cytometry. […]

For `CO[C@@]12[C@H](COC(N)=O)C3=C(C(=O)C(C)=C(N)C3=O)N1C[C@@H]1N[C@@H]12` [Mitomycin C], which IC50 is on record?
Its IC50 is roughly 70 nM.

Reference: US20130280258A1, “PROGNOSTIC, DIAGNOSTIC, AND CANCER THERAPEUTIC USES OF FANCI AND FANCI MODULATING AGENTS” (Miltenyi Biotec GmbH, priority 2007, published 2013)
